According to patent US10898481B2 (priority 2018, dated 2021):
Read-outs that look alike come from different tables or passages of the source.

Columns and labels:
[1] = molecular target: hADORA1/CHO (hA1 expressing) cells (Homo sapiens (Human), UniProt P30542); experiment: cell-based; conditions: 10 μM adenosine
[2] = molecular target: hA2a/CHO (Homo sapiens (Human), UniProt P29274); experiment: cAMP inhibition assay in hA2a/CHO cells, 10 μM adenosine; format: cell-based;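 also: compounds added to cells 30 min ahead of adenosine, then a further 30 min at 37 °C with adenosine before cAMP detection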
Protocol: (§1) hA2a/CHO, hA2b/CHO, hA3/CHO and mA2a/CHO (Genscript) were plated at 5×10^3 cells/well into 384-well polystyrene plates at the day of experiment. Compounds were pre-incubated with cells for 30 min at 37° C., 5% CO2. Then 10 μM adenosine was added to the cells and incubated for 30 min at 37° C., 5% CO2. Detection reagent (CISBIO) was added and the plates were incubated for 60 min at room temperature. The signal was captured by Envision.

[3] = molecular target: hA2b/CHO (Homo sapiens (Human), UniProt P29275); experiment: cAMP inhibition assay in hA2b/CHO cells, 10 μM adenosine; format: cell-based;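 also: cells exposed to compound 30 min at 37 °C, then stimulated with adenosine a further 30 min, cAMP read after 60 min at room temperature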
Protocol: as §1

[4] = molecular target: mA2a/CHO (Mus musculus (Mouse), UniProt Q60613); experiment: cAMP inhibition assay in mA2a/CHO cells, 10 μM adenosine; format: cell-based;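 also: compounds preincubated 30 min at 37 °C before the adenosine challenge, then 30 min further stimulation, readout after 60 min detection reagent incubation at room temperature in 384-well plates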
Protocol: as §1

[5] = FLIPR inhibition, read-out: cAMP & FLIPR IC50 (nM) hA1
[6] = read-out: cAMP & FLIPR IC50 (nM) hA2a
[7] = read-out: cAMP & FLIPR IC50 (nM) hA2b
[8] = read-out: cAMP & FLIPR IC50 (nM) mA2a

hADORA1/CHO (hA1 expressing) cells, sequence (P30542 whole entry): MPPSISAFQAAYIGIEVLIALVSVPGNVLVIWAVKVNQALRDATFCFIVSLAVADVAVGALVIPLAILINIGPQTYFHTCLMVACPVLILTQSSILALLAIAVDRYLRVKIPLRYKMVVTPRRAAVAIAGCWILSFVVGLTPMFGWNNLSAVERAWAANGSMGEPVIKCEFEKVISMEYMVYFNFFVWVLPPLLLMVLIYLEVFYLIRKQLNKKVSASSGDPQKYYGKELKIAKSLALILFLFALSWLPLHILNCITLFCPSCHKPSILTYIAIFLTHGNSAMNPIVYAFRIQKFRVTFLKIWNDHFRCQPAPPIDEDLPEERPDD
hA2b/CHO, sequence (P29275 whole entry): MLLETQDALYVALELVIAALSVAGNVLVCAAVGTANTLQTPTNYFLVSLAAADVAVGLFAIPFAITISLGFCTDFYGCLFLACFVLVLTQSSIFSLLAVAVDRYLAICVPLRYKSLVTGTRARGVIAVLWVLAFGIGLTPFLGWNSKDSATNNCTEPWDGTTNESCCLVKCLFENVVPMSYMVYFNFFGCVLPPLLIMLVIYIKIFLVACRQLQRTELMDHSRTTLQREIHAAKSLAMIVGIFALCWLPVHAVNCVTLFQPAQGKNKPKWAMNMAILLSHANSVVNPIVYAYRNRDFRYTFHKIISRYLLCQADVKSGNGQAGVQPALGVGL
hA2a/CHO, sequence (P29274 whole entry): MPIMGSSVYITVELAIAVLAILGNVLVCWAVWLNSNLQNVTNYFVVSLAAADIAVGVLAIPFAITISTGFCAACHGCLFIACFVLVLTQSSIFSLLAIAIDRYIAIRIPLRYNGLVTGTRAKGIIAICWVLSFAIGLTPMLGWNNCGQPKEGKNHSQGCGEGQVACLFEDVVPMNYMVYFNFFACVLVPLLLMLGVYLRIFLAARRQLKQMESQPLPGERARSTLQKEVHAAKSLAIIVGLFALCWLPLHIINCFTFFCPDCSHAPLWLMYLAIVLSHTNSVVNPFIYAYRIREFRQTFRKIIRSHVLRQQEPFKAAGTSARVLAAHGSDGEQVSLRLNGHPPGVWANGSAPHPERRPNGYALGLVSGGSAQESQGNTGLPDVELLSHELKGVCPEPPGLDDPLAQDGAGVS
mA2a/CHO, sequence (Q60613 whole entry): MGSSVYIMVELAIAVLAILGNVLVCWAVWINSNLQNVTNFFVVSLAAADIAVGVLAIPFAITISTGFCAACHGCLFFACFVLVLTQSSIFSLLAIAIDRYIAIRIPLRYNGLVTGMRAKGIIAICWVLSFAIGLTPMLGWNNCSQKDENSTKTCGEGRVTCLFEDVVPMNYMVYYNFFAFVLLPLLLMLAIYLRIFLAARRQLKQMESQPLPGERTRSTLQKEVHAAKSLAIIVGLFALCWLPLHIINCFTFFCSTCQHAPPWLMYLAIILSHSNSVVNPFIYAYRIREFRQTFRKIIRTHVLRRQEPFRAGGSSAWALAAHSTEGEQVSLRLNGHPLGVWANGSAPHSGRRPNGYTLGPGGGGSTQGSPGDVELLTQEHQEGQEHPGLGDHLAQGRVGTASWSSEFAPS

| SMILES | IC50 [1, 5] | IC50 [2, 6] | IC50 [3, 7] | IC50 [4, 8] | IC50 ([1]; cAMP & FLIPR IC50 (nM) hA1, FLIPR inhibition) | IC50 ([2]; cAMP & FLIPR IC50 (nM) hA2a) | IC50 ([3]; cAMP & FLIPR IC50 (nM) hA2b) | IC50 ([4]; cAMP & FLIPR IC50 (nM) mA2a) |
| --- | --- | --- | --- | --- | --- | --- | --- | --- |
| CP(C)(=O)c1cccc(F)c1CNC(=O)c1nc(-c2ccc3nccn3c2)c(-c2ncco2)nc1N [Example 96, 3-amino-N-[[2-(dimethylphosphoryl)-6-fluorophenyl]methyl]-6-[imidazo[1,2-a]pyridin-6-yl]-5-(1,3-oxazol-2-yl)pyrazine-2-carboxamide] | 136 nM | 2.5 nM | 164 nM | 7.5 nM |  |  |  |  |
| Cn1cc(-c2nc(C(=O)NCc3c(F)cccc3P(C)(C)=O)c(N)nc2-c2ncco2)ccc1=O [Example 97, 3-amino-N-(2-(dimethylphosphoryl)-6-fluorobenzyl)-6-(1-methyl-6-oxo-1,6-dihydropyridin-3-yl)-5-(oxazol-2-yl) pyrazine-2-carboxamide] | 482 nM | 50 nM | 4880 nM | 40 nM |  |  |  |  |
| CNc1cccc(CNC(=O)c2nc(-c3ccc4nccn4c3)c(-c3ncco3)nc2N)n1 [Example 99, 3-amino-6-(imidazo[1,2-a]pyridin-6-yl)-N-((6-(methylamino)pyridin-2-yl)methyl)-5-(oxazol-2-yl)pyrazine-2-carboxamide] | 171 nM | 5.1 nM | 200 nM | 35 nM |  |  |  |  |
| Nc1nc(-c2ncco2)c(-c2ccc(=O)n(CCCO)c2)nc1C(=O)NCc1c(F)cccc1F [Example 102, 3-amino-N-[(2,6-difluorophenyl)methyl]-6-[1-(3-hydroxypropyl)-6-oxo-1,6-dihydropyridin-3-yl]-5-(1,3-oxazol-2-yl)pyrazine-2-carboxamide] | 78 nM | 9.9 nM | 120 nM | 48 nM |  |  |  |  |
| COCCn1cc(-c2nc(C(=O)NCc3c(F)cccc3F)c(N)nc2-c2ncco2)ccc1=O [Example 103, 3-amino-N-[(2,6-difluorophenyl)methyl]-6-[1-(2-methoxyethyl)-6-oxo-1,6-dihydropyridin-3-yl]-5-(1,3-oxazol-2-yl)pyrazine-2-carboxamide] | 272 nM | 38 nM | 2130 nM | 16 nM |  |  |  |  |
| Nc1nc(-c2ncco2)c(-c2ccc(=O)[nH]c2)nc1C(=O)NCc1c(F)cccc1F [Example 105, 3-amino-N-(2,6-difluorobenzyl)-5-(oxazol-2-yl)-6-(6-oxo-1,6-dihydropyridin-3-yl)pyrazine-2-carboxamide] | 3.5 nM | 0.1 nM | 1.8 nM | 0.8 nM |  |  |  |  |
| Cn1cc(-c2nc(C(=O)NCc3ccccc3F)c(N)nc2-c2ncco2)ccc1=O [Example 109, 3-amino-N-(2-fluorobenzyl)-6-(1-methyl-6-oxo-1,6-dihydropyridin-3-yl)-5-(oxazol-2-yl)pyrazine-2-carboxamide] | 486 nM | 13 nM | 240 nM | 20 nM |  |  |  |  |
| Cn1cc(-c2nc(C(=O)NCc3c(F)cccc3Cl)c(N)nc2-c2ncco2)ccc1=O [Example 110, 3-amino-N-(2-chloro-6-fluorobenzyl)-6-(1-methyl-6-oxo-1,6-dihydropyridin-3-yl)-5-(oxazol-2-yl)pyrazine-2-carboxamide] | 31 nM | 0.7 nM | 11 nM | 1 nM |  |  |  |  |
| Cc1cnc2ccc(-c3nc(C(=O)NCc4cccc(N5CC(N(C)C)C5)n4)c(N)nc3-c3ncco3)cn12 [Example 111, 3-amino-N-((6-(3-(dimethylamino)azetidin-1-yl)pyridin-2-yl)methyl)-6-(3-methylimidazo[1,2-a]pyridin-6-yl)-5-(oxazol-2-yl)pyrazine-2-carboxamide] | 2810 nM | 0.5 nM | 81 nM | 6.5 nM |  |  |  |  |
| Cc1cnc2ccc(-c3nc(C(=O)NCc4cccc(N5CCN(C)CC5)n4)c(N)nc3-c3ncco3)cn12 [Example 112, 3-amino-6-(3-methylimidazo[1,2-a]pyridin-6-yl)-N-((6-(4-methylpiperazin-1-yl)pyridin-2-yl)methyl)-5-(oxazol-2-yl)pyrazine-2-carboxamide] | 10000 nM | 1.3 nM | 502 nM | 18 nM |  |  |  |  |
| Cn1cnc2ccc(-c3nc(C(=O)NCc4ncccc4OCCO)c(N)nc3-c3ccc(F)cc3)cc21 [Example 113, 3-amino-5-(4-fluorophenyl)-N-[[3-(2-hydroxyethoxy)pyridin-2-yl]methyl]-6-(1-methyl-1H-1,3-benzodiazol-6-yl)pyrazine-2-carboxamide] | 70 nM | 0.4 nM | 68 nM | 1 nM |  |  |  |  |
| COCCOc1cccnc1CNC(=O)c1nc(-c2ccc3ncn(C)c3c2)c(-c2ccc(F)cc2)nc1N [Example 114, 3-amino-5-(4-fluorophenyl)-N-[[3-(2-methoxyethoxy)pyridin-2-yl]methyl]-6-(1-methyl-1H-1,3-benzodiazol-6-yl)pyrazine-2-carboxamide] | 83 nM | 0.7 nM | 170 nM | 1.5 nM |  |  |  |  |
| CN(C)CCOc1cccnc1CNC(=O)c1nc(-c2ccc3ncn(C)c3c2)c(-c2ccc(F)cc2)nc1N [Example 116, 3-amino-N-([3-[2-(dimethylamino)ethoxy]pyridin-2-yl]methyl)-5-(4-fluorophenyl)-6-(1-methyl-1H-1,3-benzodiazol-6-yl)pyrazine-2-carboxamide] |  |  |  |  | 61 nM | 9.6 nM | 6020 nM | 17 nM |
| Cn1cnc2ccc(-c3nc(C(=O)NCc4ncccc4NCCO)c(N)nc3-c3ccc(F)cc3)cc21 [Example 117, 3-amino-5-(4-fluorophenyl)-N-([3-[(2-hydroxyethyl)amino]pyridin-2-yl]methyl)-6-(1-methyl-1H-1,3-benzodiazol-6-yl)pyrazine-2-carboxamide] | 64 nM | 0.7 nM | 146 nM | 2.6 nM |  |  |  |  |
| Cc1cnc2ccc(-c3nc(C(=O)NCc4cnccc4N(C)C)c(N)nc3-c3ncco3)cn12 [Example 118, 3-amino-N-((4-(dimethylamino)pyridin-3-yl)methyl)-6-(3-methylimidazo[1,2-a]pyridin-6-yl)-5-(oxazol-2-yl)pyrazine-2-carboxamide] | 35 nM | 3.1 nM | 6.8 nM | 1.7 nM |  |  |  |  |
| Cn1cnc2ccc(-c3nc(C(=O)NCc4ncccc4OCC(N)=O)c(N)nc3-c3ccc(F)cc3)cc21 [Example 119, 3-amino-N-[[3-(carbamoylmethoxy)pyridin-2-yl]methyl]-5-(4-fluorophenyl)-6-(1-methyl-1H-1,3-benzodiazol-6-yl)pyrazine-2-carboxamide] | 41 nM | 1.1 nM | 31 nM | 4.7 nM |  |  |  |  |
| Cc1cnc2ccc(-c3nc(C(=O)NC[C@H]4CCCN4)c(N)nc3-c3ncco3)cn12 [Example 122, (R)-3-amino-6-(3-methylimidazo[1,2-a]pyridin-6-yl)-5-(oxazol-2-yl)-N-(pyrrolidin-2-ylmethyl)pyrazine-2-carboxamide] | 10000 nM | 34 nM | 887 nM | 126 nM |  |  |  |  |
| Cc1cnc2ccc(-c3nc(C(=O)NC[C@@H]4CCCN4)c(N)nc3-c3ncco3)cn12 [Example 123, (S)-3-amino-6-(3-methylimidazo[1,2-a]pyridin-6-yl)-5-(oxazol-2-yl)-N-(pyrrolidin-2-ylmethyl)pyrazine-2-carboxamide] | 10000 nM | 56 nM | 1310 nM | 153 nM |  |  |  |  |
